# Assay results published in patent publication US20250145608A1, “KRAS DEGRADING COMPOUNDS COMPRISING ANNULATED 2-AMINO-3-CYANO THIOPHENES” (Boehringer Ingelheim Int'l GmbH Corp., priority 2021, published 2025).
# Columns and labels:
# Format in all cases: cell-based
# [1] = tested on: LOVO cells; experiment: LOVO CTG proliferation assay (120 h) (CRC, G13D); conditions: Homo sapiens
# Experimental: LOVO CTG Proliferation Assay (120 h) (CRC, G13D)
# (§1) LOVO cells (ATCC CCL-229) are dispensed into 384-well plates, flat and clear bottom (Greiner, PNr. 781091) at a density of 1000 cells per well in 60 μL DMEM (Sigma D6429)+10% Fetal Calf Serum (HyClone, PNr.: SH30084.03) and incubated at 37° C. in a CO2 incubator overnight. The next day, compounds (10 mM stock in DMSO) are added with the ECHO acoustic liquid handler system (Beckman Coulter), including DMSO controls. Plates are incubated for 120 h, and cell viability is measured using CellTiter-Glo luminescent cell viability reagent (Promega product code G7570). Viability (stated as percent of control) is defined as relative luminescence units RLU of each well divided by the RLU of cells in DMSO controls. IC50 values are determined from viability measurements by non-linear regression using a four-parameter model.
# [2] = tested on: NCI-H358 cells; experiment: NCI-H358 CTG proliferation assay (120 h) (NSCLC, G12C); conditions: Homo sapiens, assay 2, read-out: H358 (assay 2) IC50
# Experimental: NCI-H358 CTG Proliferation Assay (120 h) (NSCLC, G12C)
# NCI-H358 cells (ATCC No. CRL-5807) are dispensed into white bottom opaque 96 well plates (Perkin Elmer cat no. 5680) at a density of 2000 cells per well in 100 μL RPMI-1640 ATCC-Formulation (Gibco #A10491)+10% FCS (fetal calf serum) (assay 1) or into black 384-well plates, flat and clear bottom (Greiner, PNr. 781091) at a density of 200 cells per well in 60 μl RPMI-1640 ATCC-Formulation (Gibco #A10491)+10% FCS (fetal calf serum) (assay 2). […] Compounds (10 mM stock in DMSO) are added at logarithmic dose series using the HP Digital Dispenser D300 (Tecan) (assay 1) or the ECHO acoustic liquid handler system (Beckman Coulter) (assay 2), normalizing for added DMSO and including DMSO controls. For the TO time point measurement, untreated cells are analyzed at the time of compound addition. Plates are incubated for 120 h, and cell viability is measured using CellTiter-Glo luminescent cell viability reagent (Promega product code G7570). Viability (stated as percent of control) is defined as relative luminescence units RLU of each well divided by the RLU of cells in DMSO controls. IC50 values are determined from viability measurements by non-linear regression using a four parameter model.
# [3] = tested on: SK—CO-1 cells; experiment: SK-CO-1 CTG proliferation assay (120 h) (CRC, G12V); conditions: Homo sapiens, SK-CO-1 proliferation
# Experimental: SK—CO-1 CTG Proliferation Assay (120 h) (CRC, G12V)
# as §1, with “SK—CO-1” for “LOVO”, “HTB-39)” for “CCL-229)”, “500” for “1000”, “EMEM” for “DMEM”, “M5650)+10%” for “D6429)+10%”
# [4] = target: T1, KRAS(G12D) (Homo sapiens, UniProt P01116, G12D); experiment: HiBit degradation assay in GP5d-HiBit-KRAS(G12D) cells (18 h; DC50, Dmax)
# T1 construct: introduced immediately downstream of the initiating Methionine codon of the endogenous KRAS locus; host or cells: GP5d-HiBit-KRAS(G12D), a CRISPR knock-in at the endogenous locus
# Experimental: A HiBit protein detection tag (amino acid sequence […], Seq ID No 1) was introduced immediately downstream of the initiating Methionine codon of the endogenous KRAS locus (Ensembl gene ID ENSG00000133703.7) of GP5d cells (ECACC Cat. No. 95090715) by CRISPR-based genome engineering using a KRAS(G12D) mutant donor construct encoding the HiBit tag. […] Correct modification of the KRAS locus was assessed by PCR-based genotyping and Sanger sequencing of the isolated PCR products. The resulting cell line is referred to as GP5d-HiBit-KRAS(G12D).
# To assess PROTAC-mediated degradation of KRAS(G12D), GP5d-HiBit-KRAS(G12D) cells were seeded at 25000 cells per well in 100 μL Dulbecco's Modified Eagle medium (Sigma cat. no. D6429) supplemented with 10% fetal calf serum into white bottom opaque 96 well plates (Perkin Elmer cat no. 5680). Plates were incubated at 37° C., 5% CO2 in a humidified incubator over night to allow the cells to adhere. […] Plates were further incubated at 37° C. for 18 hours. Following incubation, 100 μL per well Promega Nano-Glo HiBit lytic detection reagent mix (Promega Nano-Glo HiBit Lytic Detection System #N3050), prepared according to the manufacturer's instructions in the kit, were added. To allow for adequate cell lysis, plates were incubated on an orbital shaker for 15 min and further incubated 30 min at room temperature. Upon completion of cell lysis, luminescence was measured using an Envision plate reader using the Ultrasensitive Luminescence Protocol for 96 well plates. Luminescence levels were normalized by the values obtained with DMSO-treated samples and plotted as percent of DMSO control. DC50 values were computed using a four parametric logistic model. Dmax values represent the maximal extent of degradation observed and is stated as percent of control (% Ctrl.) treatments. DC50 and Dmax are reported in Table 64 for representative compounds of the invention.
# [5] = tested on: AsPC-1 cells; experiment: AsPC-1 CTG proliferation assay (120 h) (pancreatic cancer, G12D); conditions: Homo sapiens, ASPC1, AsPC-1 proliferation
# Experimental: AsPC-1 CTG Proliferation Assay (120 h) (Pancreatic Cancer, G12D)
# The CTG assay is designed to measure quantitatively the proliferation of AsPC-1 cells (ATCC […]), using the CellTiter Glow Assay Kit (Promega G7571). Cells are grown in RPMI medium (ATCC) supplemented with Fetal Calf Serum (Life Technologies, Gibco BRL, Cat. No. 10270-106). On “day 0” 2000 AsPC-1 cells are seeded in 60 μL RPMI ATCC+10% FCS+ Penstrep in a 384-well plate, flat and clear bottom (Greiner, PNr. 781091). Cells are then incubated in the plates at 37° C. in a CO2 incubator overnight. On day 1, compounds (10 mM stock in DMSO) are added with the ECHO acoustic liquid handler system (Beckman Coulter), including DMSO controls. Plates are incubated for 120 h, and cell viability is measured using CellTiter-Glo luminescent cell viability reagent (Promega product code G7570). Viability (stated as percent of control) is defined as relative luminescence units RLU of each well divided by the RLU of cells in DMSO controls. IC50 values are determined from viability measurements by non-linear regression using a four-parameter model.
# [6] = tested on: SAS cells; experiment: SAS CTG proliferation assay (120 h) (HNSCC, wt amplified)
# Experimental: SAS CTG Proliferation Assay (120 h) (HNSCC, Wt Amplified)
# as §1, with “SAS” for “LOVO”, “(JCRB0260)” for “(ATCC CCL-229)”, “300” for “1000”, “DMEM:F12 (Gibco 31330-038)+10%” for “DMEM (Sigma D6429)+10%”
# T1 sequence (P01116 1-188 isoform P01116-2 G12D): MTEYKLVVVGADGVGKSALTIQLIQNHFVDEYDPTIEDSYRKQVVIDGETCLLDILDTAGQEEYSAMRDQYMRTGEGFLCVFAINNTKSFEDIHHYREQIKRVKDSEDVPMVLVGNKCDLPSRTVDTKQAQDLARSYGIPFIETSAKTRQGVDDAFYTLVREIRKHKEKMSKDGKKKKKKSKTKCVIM
IC50 [1],IC50 [2],IC50 [3],DC50 [4],Dmax 18 h [4],IC50 [5],Structure (SMILES),IC50 [6]
59.4 nM,288 nM,216 nM,12.9 nM,92 % Ctrl,470 nM,CC(C)C(C(=O)N1C[C@H](O)C[C@H]1C(=O)NCc1ccc(-c2scnc2CO)cc1)c1cc(OCCCCN2CCCN(c3nccc(-c4noc([C@@]5(C)CCCc6sc(N)c(C#N)c65)n4)n3)[C@@H](C)C2)no1 (some centres unmarked) [I-9],16400 nM
278 nM,169 nM,124 nM,4.1 nM,89 % Ctrl,435 nM,CC(C)C(C(=O)N1C[C@H](O)C[C@H]1C(=O)NCc1ccc(C#N)c(Cl)c1)c1cc(OCCCCN2CCCN(c3nccc(-c4noc([C@@]5(C)CCCc6sc(N)c(C#N)c65)n4)n3)[C@@H](C)C2)no1 (some centres unmarked) [I-18],3380 nM
929 nM,–,507 nM,7.6 nM,83 % Ctrl,8330 nM,Cc1ncsc1-c1ccc([C@H](CO)NC(=O)[C@@H]2C[C@@H](O)CN2C(=O)C(C(C)C)n2cc(OCCCCN3C[C@H](C)N(c4nccc(-c5noc([C@@]6(C)CCCc7sc(N)c(C#N)c76)n5)n4)CCC3(C)C)nn2)cc1 (some centres unmarked) [I-32],9440 nM
50 nM,–,1950 nM,13.1 nM,91 % Ctrl,323 nM,COC(=O)[C@H](NC(=O)[C@@H]1C[C@@H](O)CN1C(=O)C(C(C)C)n1cc(OCCCCN2CCCN(c3nccc(-c4noc([C@@]5(C)CCCc6sc(N)c(C#N)c65)n4)n3)[C@@H](C)C2)nn1)c1ccc(-c2scnc2C)cc1 (some centres unmarked) [I-33],84.5 nM
